Assay results published in patent publication US7319087B2, “Antimicrobial polypeptide from Aspergillus niger” (Novozymes A/S, priority 2001, dated 2008).
No end group written: not given here.

Legend:
[1] = A. giganteus peptide, 51 amino acids; Campos-Olivas et al. (1995); cited from earlier work
A. niger MBin118 = assay: Growth of transformants expressing the polypeptide in tubes with YPM (2% maltose); format: cell-based, Aspergillus niger; conditions: A. niger MBin118 transformed with expression plasmid, 6 days, 10 ml YPM (2% maltose)
Excerpt: (§1) The A. niger anti-microbial polypeptide was inserted in the Aspergillus expression vector pMT2188 to give pMT2446 (i.e., pMT2188 with an insert comprising the A. niger anti-microbial gene): pMT2446 was transformed into A. oryzae BECh2 (disclosed, e.g., on page 26 of WO 00/39322) and into A. niger MBin118. Thirty transformants of each strain were re-isolated twice under selective and non-inducing conditions on Cove minimal plates with sucrose and acetamide. To test expression of the anti-microbial polypeptide, transformants were grown for 6 days in tubes with 10 ml YPM (2% maltose). Supernatants were run on NuPage 10% Bis-Tris SDS gels with MES running buffer to allow separation in the low mw range.

A. oryzae BECh2 = assay: as above; format: cell-based, Aspergillus oryzae; conditions: A. oryzae BECh2 transformed with expression plasmid, 6 days, 10 ml YPM (2% maltose)
Excerpt: as §1

| Substance | pl [1] | growth on YPM of host transformants (A. niger MBin118) | growth on YPM of host transformants (A. oryzae BECh2) |
| --- | --- | --- | --- |
| A. giganteus peptide: anti-fungal peptide from Aspergillus giganteus (Nakaya et al. 1990), 51 amino acids, four S-S bridges (ATYNGKCYKKDNICKYKAQSGKTAICKCYVKKCPRDGAKCEFDSYKGKCYC; disulfide (positions not given here); not fully specified (bridges); also: four S-S bridges, pairing not given here; UniProt P17737 44-94, looked up) | 9.3 |  |  |
| A. giganteus anti-fungal polypeptide (AFP): A. giganteus anti-fungal polypeptide (AFP) disclosed in WO 94/01459 (ATYNGKCYKKDNICKYKAQSGKTAICKCYVKKCPRDGAKCEFDSYKGKCYC; UniProt P17737 44-94, looked up) |  | Growth was inhibited | Growth was inhibited |
| A. niger anti-microbial polypeptide: 58 amino acid mature polypeptide with anti-microbial activity from Aspergillus niger, SEQ ID NO: 2 (positions 1 to 58), expressed from pMT2446 (MQLTSIAIILFAAMGAIANPIAAEADNLVAREAELSKYGGECSVEHNTCTYLKGGKDH; Aspergillus niger) |  | seemed to grow normally | seemed inhibited |
